The source of these data is PubChem BioAssay (NCI).

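Cells were grown in 96-well plates and exposed to each compound for 48 hours at five concentrations; endpoints were interpolated linearly between bracketing concentrations, or set to the highest concentration if not reached. Definition used: TGI = concentration required for complete inhibition of growth.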 Where a SMILES comes first, the peptide text is derived from it. The star is where a group is joined. Cbz = O=C(OCc1ccccc1)*

Some test systems named below: NCI-H23 lung; RPMI-8226 leukemia; SK-OV-3 ovarian; MALME-3M melanoma; NCI-H226 lung; OVCAR-3 ovarian; ACHN renal; UO-31 renal; MDA-MB-231 breast; 786-0 renal; HOP-92 NSCLC; CAKI-1 renal.
Holding throughout (assay): inhibition of tumour cell growth, NCI panel, 48 h

`CCOC(=O)CCC(NC(=O)C(Cc1ccccc1)NC(=O)OCc1ccccc1)C(=O)OCC` (stereo not drawn) (Cbz-Phe-Glu(OEt)-OEt; configuration not given here): the TGI was 33.1 µM with NCI-H23 lung; > 76 µM with RPMI-8226 leukemia; 30.5 µM with SK-OV-3 ovarian; 33.1 µM in the experiment with MALME-3M melanoma; 32.6 µM in the experiment with NCI-H226 lung; 28.6 µM in the experiment with OVCAR-3 ovarian. Moreover, the TGI was 31.2 µM in the experiment on ACHN renal; 31.2 µM with UO-31 renal; 29.5 µM in the experiment with MDA-MB-231 breast; 32 µM in the experiment with 786-0 renal; 36.3 µM in the experiment with HOP-92 NSCLC; 30.4 µM in the experiment with CAKI-1 renal.
As to `O=c1[nH]c2nc3ccccc3c(=O)n2/c1=C/c1cccs1`, the TGI in the experiment with NCI-H23 lung, in the experiment on RPMI-8226 leukemia, in the experiment on SK-OV-3 ovarian, in the experiment with MALME-3M melanoma, in the experiment with NCI-H226 lung and in the experiment with OVCAR-3 ovarian was > 100 µM in each case. The TGI in the experiment with ACHN renal, in the experiment on UO-31 renal, in the experiment on MDA-MB-231 breast, in the experiment on 786-0 renal, in the experiment with HOP-92 NSCLC and with CAKI-1 renal was > 100 µM each time.
For `COC(=O)[C@@H](NC(=O)N(Cc1ccccc1)C[C@H](CC(C)C)NC(=O)[C@@H](NC(=O)OC(C)(C)C)C(C)C)C(C)C`, the TGI with NCI-H23 lung, with RPMI-8226 leukemia, in the experiment with SK-OV-3 ovarian, with MALME-3M melanoma, with NCI-H226 lung and with OVCAR-3 ovarian was > 100 µM each time. Besides, the TGI with ACHN renal, in the experiment with UO-31 renal, with MDA-MB-231 breast, in the experiment with 786-0 renal, in the experiment on HOP-92 NSCLC and in the experiment on CAKI-1 renal was > 100 µM in each case.
As for `Cc1ccnc2c1C(=O)C1=C(OC(C)(C)CC1O)C2=O` (stereo unspecified), the TGI in the experiment on NCI-H23 lung is 4.82 µM; with RPMI-8226 leukemia, > 39.3 µM; in the experiment with SK-OV-3 ovarian, 27.2 µM; with MALME-3M melanoma it was 3.02 µM; in the experiment with NCI-H226 lung, 21.2 µM; in the experiment on OVCAR-3 ovarian, 7.18 µM. In addition, the TGI in the experiment with ACHN renal worked out at 22.9 µM; with UO-31 renal, 11.3 µM; in the experiment on MDA-MB-231 breast it was 15.4 µM; in the experiment with 786-0 renal it was 16.4 µM; in the experiment with HOP-92 NSCLC, 24.6 µM; in the experiment with CAKI-1 renal it was 19 µM.
For `CC(=O)SC(C[N+](=O)[O-])c1ccc2c(c1)OCO2` (stereo unspecified), the TGI was 34.6 µM in the experiment with NCI-H23 lung; > 22.7 µM in the experiment on RPMI-8226 leukemia; 18 µM in the experiment on SK-OV-3 ovarian; 15.8 µM in the experiment with MALME-3M melanoma; 46 µM with NCI-H226 lung; 16.6 µM in the experiment on OVCAR-3 ovarian. For the same compound, the TGI in the experiment on ACHN renal was 21.9 µM; with UO-31 renal, 11.9 µM; with MDA-MB-231 breast, 22.3 µM; in the experiment with 786-0 renal, 8.95 µM; in the experiment on HOP-92 NSCLC, 34.6 µM; with CAKI-1 renal, 18.6 µM.
For the compound `O=c1cc(NNc2cccc(Cl)c2)[nH]c(=O)[nH]1`, the TGI was > 100 µM in the experiment on NCI-H23 lung; 56.1 µM in the experiment with RPMI-8226 leukemia; > 100 µM in the experiment on SK-OV-3 ovarian; 30.6 µM with MALME-3M melanoma; > 100 µM in the experiment on NCI-H226 lung; 31.2 µM in the experiment on OVCAR-3 ovarian. The TGI was > 100 µM in the experiment on ACHN renal; > 100 µM in the experiment on UO-31 renal; 32.1 µM in the experiment with MDA-MB-231 breast; 31 µM in the experiment on 786-0 renal; 35.5 µM in the experiment with HOP-92 NSCLC; 36.9 µM in the experiment with CAKI-1 renal.
With `CCOC(=O)CCC(NC(=O)OCc1ccccc1)C(=O)NC(CCC(=O)OCC)C(=O)OCC` (stereo unspecified) (Cbz-Glu(OEt)-Glu(OEt)-OEt; configuration not given here), the TGI in the experiment with NCI-H23 lung, with RPMI-8226 leukemia, with SK-OV-3 ovarian, in the experiment on MALME-3M melanoma, in the experiment on NCI-H226 lung and in the experiment on OVCAR-3 ovarian was > 100 µM each time. Also, the TGI in the experiment on ACHN renal, in the experiment on UO-31 renal, with MDA-MB-231 breast, in the experiment with 786-0 renal, in the experiment with HOP-92 NSCLC and with CAKI-1 renal was > 100 µM in each case.
With `Cn1nnnc1SC(F)(F)c1nc2ccccc2o1`, the TGI with NCI-H23 lung, with RPMI-8226 leukemia, in the experiment on SK-OV-3 ovarian, in the experiment with MALME-3M melanoma, in the experiment on NCI-H226 lung and with OVCAR-3 ovarian was > 100 µM each time. Further, the TGI in the experiment on ACHN renal, in the experiment on UO-31 renal, in the experiment on MDA-MB-231 breast, in the experiment with 786-0 renal, in the experiment with HOP-92 NSCLC and in the experiment with CAKI-1 renal was > 100 µM throughout.
